Our source for the class values is patent US20070010671A1, “Novel quinazoline derivatives and methods of treatment related to the use thereof” (priority 2003, published 2007).

Each structure is given as a SMILES string.

The target of this experiment is MCH receptor (Homo sapiens, UniProt Q99705). The experiment in a line: High throughput functional screening FLIPR/FDSS6000: inhibition of MCH-evoked intracellular Ca2+ changes. In kind it is cell-based. Particulars: class by percent of control at 10^-7 M or IC50. Summed up: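 Cells expressing constitutively active MCH receptor, loaded with 4 μM Fluo4-AM for 1 h at 37 °C, were pretreated 3 min with compound, then challenged with MCH (50 nM for antagonist testing). MCH-evoked [Ca2+]i transients followed by FLIPR or FDSS (ex 488/em 530 nm) over 290 s.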

Turning to `CN(C)c1nc(N[C@H]2CC[C@@H](NC(=S)Nc3ccccc3F)CC2)nc2ccccc12` [compound 218], the class is given as 3 (Class 3: The value of percent of control at 10^−7 M was more than 60% or the value of IC50 was more than 200 nM.). As to `CN(C)c1nc(N[C@H]2CC[C@@H](NC(=S)Nc3ccccc3I)CC2)nc2ccccc12` [compound 219], the class is given as 2 (Class 2: The value of percent of control at 10^−7 M was from 40% to 60% or the value of IC50 was from 50 nM to 200 nM.). To `COc1cc([N+](=O)[O-])ccc1NC(=S)N[C@H]1CC[C@@H](Nc2nc(N(C)C)c3ccccc3n2)CC1` [compound 220, N-(cis-4-{[4-(dimethylamino)quinazolin-2-yl]amino}cyclohexyl)-N′-(2-methoxy-4-nitrophenyl)thiourea] belongs 1 (Class 1: The value of percent of control at 10^−7 M was less than 40% or the value of IC50 was less than 50 nM.); to `COc1ccc(C)cc1NC(=S)N[C@H]1CC[C@@H](Nc2nc(N(C)C)c3ccccc3n2)CC1` [compound 221, N-(cis-4-{[4-(dimethylamino)quinazolin-2-yl]amino}cyclohexyl)-N′-(2-methoxy-5-methylphenyl)thiourea], 1 (Class 1: The value of percent of control at 10^−7 M was less than 40% or the value of IC50 was less than 50 nM.). To `CN(C)c1nc(N[C@H]2CC[C@@H](NC(=S)Nc3cccc(SC(F)(F)F)c3)CC2)nc2ccccc12` [compound 222] belongs 3 (Class 3: The value of percent of control at 10^−7 M was more than 60% or the value of IC50 was more than 200 nM.).

Regarding `CN(C)c1nc(N[C@H]2CC[C@@H](NC(=S)Nc3cc(Cl)cc(Cl)c3)CC2)nc2ccccc12` [compound 223], the class is on record as 3 (Class 3: The value of percent of control at 10^−7 M was more than 60% or the value of IC50 was more than 200 nM.). To `CN(C)c1nc(N[C@H]2CC[C@@H](NC(=S)Nc3cc(F)cc(F)c3)CC2)nc2ccccc12` [compound 224] belongs 3 (Class 3: The value of percent of control at 10^−7 M was more than 60% or the value of IC50 was more than 200 nM.); to `CN(C)c1nc(N[C@H]2CC[C@@H](NC(=S)Nc3cccc(C#N)c3)CC2)nc2ccccc12` [compound 225], 3 (Class 3: The value of percent of control at 10^−7 M was more than 60% or the value of IC50 was more than 200 nM.). Regarding `CN(C)c1nc(N[C@H]2CC[C@@H](NC(=S)Nc3cccc(F)c3)CC2)nc2ccccc12` [compound 226], the class is reported as 3 (Class 3: The value of percent of control at 10^−7 M was more than 60% or the value of IC50 was more than 200 nM.).

Regarding `CN(C)c1nc(N[C@H]2CC[C@@H](NC(=S)Nc3cccc(I)c3)CC2)nc2ccccc12` [compound 227], the class is 2 (Class 2: The value of percent of control at 10^−7 M was from 40% to 60% or the value of IC50 was from 50 nM to 200 nM.). Regarding `COc1cccc(NC(=S)N[C@H]2CC[C@@H](Nc3nc(N(C)C)c4ccccc4n3)CC2)c1` [compound 228, N-(cis-4-{[4-(dimethylamino)quinazolin-2-yl]amino}cyclohexyl)-N′-(3-methoxyphenyl)thiourea], the class is reported as 2 (Class 2: The value of percent of control at 10^−7 M was from 40% to 60% or the value of IC50 was from 50 nM to 200 nM.). For the compound `CN(C)c1nc(N[C@H]2CC[C@@H](NC(=S)Nc3ccc(OC(F)F)cc3)CC2)nc2ccccc12` [compound 229, N-[4-(difluoromethoxy)phenyl]-N′-(cis-4-{[4-(dimethylamino)quinazolin-2-yl]amino}cyclohexyl)thiourea], the class is on record as 2 (Class 2: The value of percent of control at 10^−7 M was from 40% to 60% or the value of IC50 was from 50 nM to 200 nM.). On to `CN(C)c1nc(N[C@H]2CC[C@@H](NC(=S)Nc3ccc(OC(F)(F)F)cc3)CC2)nc2ccccc12` [compound 230], for which the class was 3 (Class 3: The value of percent of control at 10^−7 M was more than 60% or the value of IC50 was more than 200 nM.). Regarding `CN(C)c1nc(N[C@H]2CC[C@@H](NC(=S)Nc3ccc(C(F)(F)F)cc3)CC2)nc2ccccc12` [compound 231, N-(cis-4-{[4-(dimethylamino)quinazolin-2-yl]amino}cyclohexyl)-N′-[4-(trifluoromethyl)phenyl]thiourea], the class is 2 (Class 2: The value of percent of control at 10^−7 M was from 40% to 60% or the value of IC50 was from 50 nM to 200 nM.).

For the compound `CN(C)c1nc(N[C@H]2CC[C@@H](NC(=S)Nc3ccc(SC(F)(F)F)cc3)CC2)nc2ccccc12` [compound 232], the class is recorded as 3 (Class 3: The value of percent of control at 10^−7 M was more than 60% or the value of IC50 was more than 200 nM.).

Regarding `CN(C)c1nc(N[C@H]2CC[C@@H](NC(=S)Nc3ccc(Br)cc3Cl)CC2)nc2ccccc12` [compound 233], the class is listed as 1 (Class 1: The value of percent of control at 10^−7 M was less than 40% or the value of IC50 was less than 50 nM.). In the case of `CN(C)c1nc(N[C@H]2CC[C@@H](NC(=S)Nc3ccc(Br)cc3F)CC2)nc2ccccc12` [compound 234], the class was 3 (Class 3: The value of percent of control at 10^−7 M was more than 60% or the value of IC50 was more than 200 nM.). Consider `CN(C)c1nc(N[C@H]2CC[C@@H](NC(=S)Nc3ccc(Cl)c(C(F)(F)F)c3)CC2)nc2ccccc12` [compound 235], for which the class is reported as 3 (Class 3: The value of percent of control at 10^−7 M was more than 60% or the value of IC50 was more than 200 nM.).

`CN(C)c1nc(N[C@H]2CC[C@@H](NC(=S)Nc3ccc(F)c(C(F)(F)F)c3)CC2)nc2ccccc12` [compound 236]: the class is on record as 3 (Class 3: The value of percent of control at 10^−7 M was more than 60% or the value of IC50 was more than 200 nM.). Consider `CN(C)c1nc(N[C@H]2CC[C@@H](NC(=S)Nc3ccc(I)cc3)CC2)nc2ccccc12` [compound 237], for which the class is listed as 1 (Class 1: The value of percent of control at 10^−7 M was less than 40% or the value of IC50 was less than 50 nM.). To `Cc1ccc(Cl)cc1NC(=S)N[C@H]1CC[C@@H](Nc2nc(N(C)C)c3ccccc3n2)CC1` [compound 238] belongs 2 (Class 2: The value of percent of control at 10^−7 M was from 40% to 60% or the value of IC50 was from 50 nM to 200 nM.); to `CN(C)c1nc(N[C@H]2CC[C@@H](NC(=S)NC3C[C@@H]4CC[C@H]3C4)CC2)nc2ccccc12` (stereo partly shown) [compound 239], 2 (Class 2: The value of percent of control at 10^−7 M was from 40% to 60% or the value of IC50 was from 50 nM to 200 nM.).

As for `CN(C)c1nc(N[C@H]2CC[C@@H](NC(=S)Nc3ccc(NC(=O)OC(C)(C)C)cc3)CC2)nc2ccccc12` [compound 240], the class is on record as 3 (Class 3: The value of percent of control at 10^−7 M was more than 60% or the value of IC50 was more than 200 nM.).

Consider `COc1ccc(CCNC(=S)N[C@H]2CC[C@@H](Nc3nc(N(C)C)c4ccccc4n3)CC2)cc1OC` [compound 241], for which the class is listed as 3 (Class 3: The value of percent of control at 10^−7 M was more than 60% or the value of IC50 was more than 200 nM.). With `CN(C)c1nc(N[C@H]2CC[C@@H](NC(=S)NCCc3ccc(Cl)cc3)CC2)nc2ccccc12` [compound 242], the class is 2 (Class 2: The value of percent of control at 10^−7 M was from 40% to 60% or the value of IC50 was from 50 nM to 200 nM.). Turning to `CN(C)c1nc(N[C@H]2CC[C@@H](NC(=S)Nc3cc(Cl)c(Cl)c(Cl)c3Cl)CC2)nc2ccccc12` [compound 243], the class is given as 3 (Class 3: The value of percent of control at 10^−7 M was more than 60% or the value of IC50 was more than 200 nM.). In the case of `CN(C)c1nc(N[C@H]2CC[C@@H](NC(=S)Nc3cc(Cl)c(Cl)cc3Cl)CC2)nc2ccccc12` [compound 244] it was 3 (Class 3: The value of percent of control at 10^−7 M was more than 60% or the value of IC50 was more than 200 nM.); in that of `CN(C)c1nc(N[C@H]2CC[C@@H](NC(=S)Nc3c(Cl)cc(Cl)cc3Cl)CC2)nc2ccccc12` [compound 246, N-(cis-4-{[4-(dimethylamino)quinazolin-2-yl]amino}cyclohexyl)-N′-(2,4,6-trichlorophenyl)thiourea], 1 (Class 1: The value of percent of control at 10^−7 M was less than 40% or the value of IC50 was less than 50 nM.). In the case of `CN(C)c1nc(N[C@H]2CC[C@@H](NC(=S)Nc3c(F)cc(F)cc3F)CC2)nc2ccccc12` [compound 247] it was 3 (Class 3: The value of percent of control at 10^−7 M was more than 60% or the value of IC50 was more than 200 nM.). To `Cc1cc(C)c(NC(=S)N[C@H]2CC[C@@H](Nc3nc(N(C)C)c4ccccc4n3)CC2)c(C)c1` [compound 248, N-(cis-4-{[4-(dimethylamino)quinazolin-2-yl]amino}cyclohexyl)-N′-mesitylthiourea] belongs 1 (Class 1: The value of percent of control at 10^−7 M was less than 40% or the value of IC50 was less than 50 nM.); to `Cc1ccc(NC(=S)N[C@H]2CC[C@@H](Nc3nc(N(C)C)c4ccccc4n3)CC2)c(C)c1` [compound 249, N-(cis-4-{[4-(dimethylamino)quinazolin-2-yl]amino}cyclohexyl)-N′-(2,4-dimethylphenyl)thiourea], 1 (Class 1: The value of percent of control at 10^−7 M was less than 40% or the value of IC50 was less than 50 nM.).

`CCc1cccc(CC)c1NC(=S)N[C@H]1CC[C@@H](Nc2nc(N(C)C)c3ccccc3n2)CC1` [compound 250, N-(2,6-diethylphenyl)-N′-(cis-4-{[4-(dimethylamino)quinazolin-2-yl]amino}cyclohexyl)thiourea]: the class is reported as 1 (Class 1: The value of percent of control at 10^−7 M was less than 40% or the value of IC50 was less than 50 nM.). In the case of `CC(C)c1cccc(C(C)C)c1NC(=S)N[C@H]1CC[C@@H](Nc2nc(N(C)C)c3ccccc3n2)CC1` [compound 251] it was 2 (Class 2: The value of percent of control at 10^−7 M was from 40% to 60% or the value of IC50 was from 50 nM to 200 nM.); in that of `Cc1ccc(NC(=S)N[C@H]2CC[C@@H](Nc3nc(N(C)C)c4ccccc4n3)CC2)c(Br)c1` [compound 252], 1 (Class 1: The value of percent of control at 10^−7 M was less than 40% or the value of IC50 was less than 50 nM.).
